System: HaCaTa cells

Row | SMILES | protection from drug-induced toxicity (Absorbance units) (0.625 mM NAC plus cooling at 22° C., extremely high doses of 4-OH-CP (FIG. 5)) | cytoprotection from combinatorial drug treatment (AC), versus cooling alone (0.625 mM NAC plus cooling at 26° C. or 22° C., sequential doxorubicin 3 μg/ml (1 h) and 4-OH-CP 5 μg/ml (1 h) (FIG. 7)) | cytoprotection of cooling at 26° C. with inhibition of ROS, compared with 22° C. at same CP concentration (0.625 mM NAC plus cooling at 26° C., 4-OH-CP (FIG. 4 vs FIG. 3)) | protection from drug-induced toxicity (% relative to control) (0.625 mM NAC plus cooling at 26° C., extremely high doses of doxorubicin (FIG. 6)) | cytotoxicity of the drug in keratinocytes
1 | CC(=O)N[C@@H](CS)C(=O)O [NAC, N-acetyl-cysteine] | strikingly high levels of protection | better cytoprotection | highly cytoprotective | strikingly high levels of protection | 
2 | COc1cccc2c1C(=O)c1c(O)c3c(c(O)c1C2=O)C[C@@](O)(C(=O)CO)C[C@@H]3O[C@H]1C[C@H](N)[C@H](O)[C@H](C)O1 [doxorubicin] |  |  |  |  | nearly total cytotoxicity (death)

Reference: US11077088B2, “Composition and apparatus for treatment of chemotherapy induced alopecia” (Paxman Coolers Ltd, priority 2016, dated 2021)
